Measurements as given in ChEMBL document CHEMBL2396627, “Novel artemisinin derivatives with potential usefulness against liver/colon cancer and viral hepatitis” (Bioorg Med Chem, 2013).
Activity calls are given as the source filed them. No cut-off for these calls is given here.

Experiments:
[1] = test system: SK-HEP1; experiment: Acute toxicity in human SKHEP1 cells at IC50 after 6 hrs by formazan test; type: cell-based; conditions: sk-hep1, 6 h
[2] = test system: EBTr; experiment: Antiviral activity against Bovine viral diarrhea virus Oregon C24V genotype 1 […] infected in bovine EBTr cells assesed as inhibition of virus-induced cytopathic effect at 20 to 100 uM after 72 hrs by MTT assay; type: functional, cell-based; conditions: Bovine viral diarrhea virus strain Oregon C24V
[3] = test system: SK-HEP1; experiment: Cytotoxicity against human SKHEP1 cells after 72 hrs by formazan test; type: functional, cell-based; conditions: for IC50: SK-HEP1, 72 h
[4] = Acute toxicity in bovine EBTr cells at 50 uM after 72 hrs; type: cell-based, Bos taurus; conditions: cattle
[5] = (§1) Cytotoxicity against human LS 174T cells after 72 hrs by formazan test; type: functional, cell-based; conditions: LS174T
[6] = test system: EBTr; experiment: Antiviral activity against Bovine viral diarrhea virus Oregon C24V genotype 1 […] infected in bovine EBTr cells assesed as inhibition of virus-induced cytopathic effect at 50 uM after 72 hrs by MTT assay; type: functional, cell-based; conditions: Bovine viral diarrhea virus strain Oregon C24V
[7] = Acute toxicity in bovine EBTr cells infected with BVDV assessed as reduction in cell viability at 50 uM after 72 hrs; type: cell-based, Bos taurus; conditions: cattle
[8] = Acute toxicity in human LS 174T cells at IC50 after 6 hrs by formazan test; type: cell-based; conditions: ls174t
[9] = Cytotoxicity against human HepG2(2.2.15) cells assessed as reduction in cell viability at 0.1 to 1 uM measured on day 21 by natural Red test; type: cell-based; conditions: hepg2 2.2.15, 1 µM
[10] = test system: HepG2; experiment: Acute toxicity in human HepG2 cells at IC50 after 6 hrs by formazan test; type: cell-based; conditions: hepg2, 6 h
[11] = test system: HepG2; experiment: Cytotoxicity against human HepG2 cells after 72 hrs by formazan test; type: functional, cell-based; conditions: for IC50: HepG2, 72 h
[12] = Cytotoxicity against bovine EBTr cells at 20 to 100 uM after 72 hrs by MTT assay; type: cell-based, Bos taurus; conditions: cattle
[13] = test system: Hepatitis B virus; experiment: Antiviral activity against Hepatitis B virus infected in human HepG2(2.2.15) cells assessed as reduction in HBV-DNA release at < 0.1 uM measured on day 21; type: functional; parameters: scale not given: the % may be the effect or the level left
[14] = test system: Bovine viral diarrhea virus strain Oregon C24V; experiment: Antiviral activity against Bovine viral diarrhea virus Oregon C24V genotype 1 […] assessed as reduction in viral RNA release at 50 uM by RT-PCR analysis; type: functional
[15] = Cytotoxicity against human HepG2(2.2.15) cells assessed as reduction in cell viability at 0.1 uM measured on day 21 by natural Red test; type: cell-based; conditions: hepg2 2.2.15, 0.1 µM
[16] = Cytotoxicity against bovine EBTr cells up to 100 uM after 72 hrs by MTT assay; type: cell-based, Bos taurus; conditions: cattle
[17] = Cytotoxicity against human HepG2(2.2.15) cells assessed as reduction in cell viability at 1 uM measured on day 21 by natural Red test; type: cell-based; conditions: hepg2 2.2.15, 1 µM
[18] = test system: SK-HEP1; experiment: Cytotoxicity against human SKHEP1 cells after 72 hrs in presence of ferrosanol; type: functional, cell-based
[19] = test system: LS174T; experiment: as §1; type: functional, cell-based
[20] = test system: SK-HEP1; experiment: Cytotoxicity against human SKHEP1 cells incubated for 1 hr prior to hemin addition measured after 72 hrs; type: functional, cell-based
[21] = test system: SK-HEP1; experiment: Cytotoxicity against human SKHEP1 cells after 72 hrs in presence of hemin; type: functional, cell-based
[22] = test system: SK-HEP1; experiment: Cytotoxicity against human SKHEP1 cells incubated for 1 hr prior to ferrosanol addition measured after 72 hrs; type: functional, cell-based
[23] = test system: EBTr; experiment: Antiviral activity against Bovine viral diarrhea virus Oregon C24V genotype 1 […] infected in bovine EBTr cells assessed as inhibition of virus-induced cytopathic effect at 50 uM incubated 1 hr prior to ferrosanol addition measured after 72 hrs; type: functional, cell-based; conditions: Bovine viral diarrhea virus strain Oregon C24V
[24] = test system: EBTr; experiment: Antiviral activity against Bovine viral diarrhea virus Oregon C24V genotype 1 […] infected in bovine EBTr cells assessed as inhibition of virus-induced cytopathic effect at 50 uM incubated 1 hr prior to hemin addition measured after 72 hrs; type: functional, cell-based; conditions: Bovine viral diarrhea virus strain Oregon C24V

| Compound | Activity [1] | Activity [2] | IC50 [3] | Activity [4] | IC50 [5] | Activity [6] | Activity [7] | Activity [8] | Activity [10] | IC50 [11] | Activity [12] | Activity [14] | Activity [16] | Activity [17] | further results |
| --- | --- | --- | --- | --- | --- | --- | --- | --- | --- | --- | --- | --- | --- | --- | --- |
| CCC(C)O[C@H]1O[C@@H]2O[C@@]3(C)CC[C@H]4[C@H](C)CC[C@@H]([C@H]1C)[C@@]24OO3 (some centres not stated) | Non-toxic | Active | 10 µM | Non-toxic | 70 µM | inactive | Toxic | Non-toxic | Non-toxic | 50 µM | Toxic | Active | – | – | Activity [9]: Toxic; Activity [13]: 50% |
| C[C@H]1[C@@H](OC(=O)N(C)C)O[C@@H]2O[C@@]3(C)CC[C@H]4[C@H](C)CC[C@@H]1[C@@]24OO3 | – | Dose-dependent effect | 25 µM | Non-toxic | 100 µM | Active | Non-toxic | – | – | 70 µM | – | inactive | Non-toxic | – | Activity [15]: Toxic |
| C[C@H]1[C@@H](OC(=O)C(C)(C)C)O[C@@H]2O[C@@]3(C)CC[C@H]4[C@H](C)CC[C@@H]1[C@@]24OO3 | Non-toxic | Active | 9 µM | Non-toxic | 70 µM | inactive | Toxic | Non-toxic | Non-toxic | 40 µM | Toxic | Active | – | Toxic | – |
| C[C@H]1[C@H](OC(=O)CCC(=O)O)O[C@@H]2O[C@@]3(C)CC[C@H]4[C@H](C)CC[C@@H]1[C@@]24OO3 [ARTESUNATE] | Toxic | – | 10 µM | – | 10 µM | – | – | Toxic | Toxic | 20 µM | – | – | – | – | Activity [18]: Active; Activity [3]: Dose-dependent effect; Activity [19]: Dose-dependent effect; Activity [20]: Active; Activity [21]: Active; Activity [22]: Active; Activity [11]: Dose-dependent effect |
| C[C@H]1[C@@H](O)O[C@@H]2O[C@@]3(C)CC[C@H]4[C@H](C)CC[C@@H]1[C@@]24OO3 [ARTENIMOL] | – | Active | 30 µM | Non-toxic | 120 µM | Active | Toxic | – | – | 70 µM | Toxic | Active | – | Toxic | Activity [3]: Dose-dependent effect; Activity [19]: Dose-dependent effect; Activity [11]: Dose-dependent effect |
| CC(=O)O[C@H]1O[C@@H]2O[C@@]3(C)CC[C@H]4[C@H](C)CC[C@@H]([C@H]1C)[C@@]24OO3 | Non-toxic | Dose-dependent effect | 4 µM | Non-toxic | 70 µM | Active | Non-toxic | Non-toxic | Non-toxic | 60 µM | – | Active | Non-toxic | – | Activity [15]: Toxic |
| CCCC(CCC)C(=O)O[C@H]1O[C@@H]2O[C@@]3(C)CC[C@H]4[C@H](C)CC[C@@H]([C@H]1C)[C@@]24OO3 | Non-toxic | inactive | 1 µM | Non-toxic | 5 µM | inactive | Toxic | Non-toxic | Non-toxic | 3 µM | Toxic | Active | – | Toxic | Activity [18]: Active; Activity [20]: Active; Activity [21]: Active; Activity [22]: Active |
| C[C@@H]1CC[C@H]2[C@@H](C)C(=O)O[C@@H]3O[C@@]4(C)CC[C@@H]1[C@]32OO4 [ARTEMISININ] | – | – | > 200 µM | – | > 200 µM | – | – | – | – | > 200 µM | – | – | – | – | – |
| CC1=CO[C@@H]2O[C@]3(C)CC[C@H]4[C@H](C)CC[C@@H]1[C@@]24OO3 [ANHYDRODIHYDROARTEMISININ] | – | Dose-dependent effect | 30 µM | Non-toxic | > 200 µM | Active | Non-toxic | – | – | 200 µM | – | Active | Non-toxic | – | Activity [9]: Toxic; Activity [23]: Active; Activity [24]: Active; Activity [13]: 50% |
| C[C@H]1[C@@H](OC(=O)C(F)(F)C(F)(F)F)O[C@@H]2O[C@@]3(C)CC[C@H]4[C@H](C)CC[C@@H]1[C@@]24OO3 | – | Dose-dependent effect | 150 µM | Non-toxic | > 200 µM | Active | Non-toxic | – | – | 200 µM | – | inactive | Non-toxic | – | Activity [15]: Toxic |
| CCCC(=O)O[C@H]1O[C@@H]2O[C@@]3(C)CC[C@H]4[C@H](C)CC[C@@H]([C@H]1C)[C@@]24OO3 | Non-toxic | Active | 2 µM | Non-toxic | 130 µM | Active | Non-toxic | Non-toxic | Non-toxic | 100 µM | – | inactive | Non-toxic | Toxic | – |
